Measurements: patent US20250312303A1, “ANTICANCER AGENT” (AGC Inc., priority 2022, published 2025)
Values joined by “and” are separate entries in the source; they are usually repeats but may differ in a detail not shown here. Equal values may be shown once.

Tests used:
HeLa cells [1] = test: Tumor volume of subcutaneously transplanted HeLa cells in SCID/SCID mice; assay type: in vivo; conditions: for Tumor volume: 5 mg/kg intraperitoneally every day for two weeks starting day 7
Procedure: First, 0.1 mL samples of an HeLa cell solution with a concentration of 1.0×10^7 cells/mL were transplanted beneath the skin of SCID/SCID (immunodeficient) mice. Starting 7 days after the HeLa cell transplantation, PBS (control group), leucine (5 mg/kg mouse bodyweight) or trifluoroleucine (5 mg/kg mouse bodyweight) was administered intraperitoneally every day for two weeks. The growth of the tumor tissue was observed over time from the time of HeLa transplantation, and the tumor volume (mm^3) was calculated. The tumor volume (mm^3) was calculated from the major diameter (mm) of the tumor tissue and the minor diameter (mm) of the tumor tissue using the formula shown below.
With the exceptions of using monofluoroisoleucine or 5-fluoro-5-methyl-norleucine (CAS RN: 1361228-49-0) instead of the trifluoroleucine, and starting the administration of the PBS, 5-fluoro-5-methyl-norleucine or monofluoroisoleucine 11 days after rather than 7 days after the HeLa cell transplantation, the same procedure as (1) above was used to measure the volume (mm^3) of the tumor formed by the subcutaneously transplanted HeLa cells over time.
(§1) First, 0.1 mL samples of an HeLa cell solution with a concentration of 1.0×10^7 cells/mL were transplanted beneath the skin of SCID/SCID (immunodeficient) mice. Starting 7 days after the HeLa cell transplantation, PBS (control group), glutamine (Gln) (5 mg/kg mouse bodyweight), (2S,4S)Gln(1F) (5 mg/kg mouse bodyweight) or (2S,4R)Gln(1F) (5 mg/kg mouse bodyweight) was administered intraperitoneally every day for two weeks. The growth of the tumor tissue was observed over time from the time of HeLa cell transplantation, and the tumor volume (mm^3) was calculated. The tumor volume (mm^3) was determined in the same manner as that described in Example 2.
as §1, with “mouse bodyweight), or di-F-Gln(F)” for “mouse bodyweight), (2S,4S)Gln(1F) (5 mg/kg mouse bodyweight) or (2S,4R)Gln(1F)”, “bodyweight), or di-F-Gln(F) (5 mg/kg” for “bodyweight) or (2S,4R)Gln(1F) (5 mg/kg”, “of HeLa transplantation, and” for “of HeLa cell transplantation, and”

PANC-1 cells = test: SRB assay, relative cell proliferation rate of PANC-1 cells; assay type: cell-based
Text: (§2) HeLa cells and PANC-1 cells were used as the cancer cells. Both these cells were obtained from ATCC. Further, NHDF cells obtained from Lonza Group Ltd. were used as control non-cancer cells. The culture mediums used were Dulbecco's Modified Eagle Medium (D-MEM, manufactured by FUJIFILM Wako Pure Chemical Corporation) to which 10% FBS had been added (hereinafter also referred to as the “normal medium”), a medium prepared by removing leucine from D-MEM and adding 10% FBS (hereinafter also referred to as the “Leu-removed medium”), and a medium prepared by removing valine from D-MEM and adding 10% FBS (hereinafter also referred to as the “Val-removed medium”).
(§3) The culture cells were inoculated into a 96-well culture plate at a concentration of 3×10^3 cells/well, and following adhesion, were cultured for 24, 48 or 72 hours in the normal medium, the Leu-removed medium or Val-removed medium, or a medium prepared by adding the fluorine-containing amino acid to the Leu-removed medium or Val-removed medium in an amount sufficient to achieve a final concentration of 0.8 mM. Following culturing, the cell proliferation rate was measured by SRB assay. As a control, the cell proliferation rate was measured in a similar manner for cells having a culture time of 0 hours.
(§4) The SRB assays were conducted in the following manner. Following cell culturing, the medium was removed, and 10% (wt/vol) of trichloroacetic acid was added to fix the cells. Subsequently, the fixed cells were washed three times with tap water, and then stained by adding a solution containing 0.4% (wt/vol) of sulforhodamine B dissolved in 1% acetic acid. Following subsequent washing three times with a 1% acetic acid solution, a 10 mM Tris solution was added, and the light absorbance at 540 nm was measured. The 540 nm absorbance value for each sample was used to indicate the cell quantity, and for each sample, the relative cell proliferation rate (%) at a culture time of X hours was determined using the formula below.
(§5) SRB assays were conducted in the same manner as Example 1 with the exceptions of using a medium prepared by removing glutamine from D-MEM and adding 10% FBS (hereinafter also referred to as the “Gln-removed medium”) as the culture medium instead of the Leu-removed medium, using monofluoroglutamine ((2S,4S)Gln(1F) or (2S,4R)Gln(1F)) as the fluorine-containing amino acid, and altering the amount of monofluoroglutamine added to the Gln-removed medium to an amount sufficient to achieve a final concentration of 4 mM.
(§6) SRB assays were conducted in the same manner as Example 1 with the exceptions of using the Gln-removed medium as the culture medium instead of the Leu-removed medium, using difluoroglutamine as the fluorine-containing amino acid, and altering the amount of difluoroglutamine added to the Gln-removed medium to an amount sufficient to achieve a final concentration of 4 mM.

HeLa cells [2] = test: SRB assay, relative cell proliferation rate of HeLa cells; assay type: cell-based
Text: as §2, §3, §4, §5, §6

NHDF cells = test: SRB assay, relative cell proliferation rate of NHDF cells (control non-cancer cells); assay type: cell-based
Text: as §2, §3, §4, §5

[3] = 7 days since HeLa cell transplantation
[4] = 14 days since HeLa cell transplantation
[5] = 21 days since HeLa cell transplantation
[6] = Leu-removed medium + 0.8 mM amino acid, culture time 24 h
[7] = Leu-removed medium + 0.8 mM amino acid, culture time 48 h
[8] = Leu-removed medium + 0.8 mM amino acid, culture time 72 h
[9] = Leu-removed medium + 0.8 mM amino acid, culture time 72 h, hydrochloride
[10] = Val-removed medium + 0.8 mM amino acid, culture time 24 h
[11] = Val-removed medium + 0.8 mM amino acid, culture time 48 h
[12] = Val-removed medium + 0.8 mM amino acid, culture time 72 h

Compound: NC(=O)CC[C@H](N)C(=O)O [Gln, glutamine, reference compound]
- Tumor volume (HeLa cells [1]; [3]): 76.0 mm^3 and 97.3 mm^3
- Tumor volume (HeLa cells [1]; 9 days since HeLa cell transplantation): 134.7 mm^3 and 259.1 mm^3
- Tumor volume (HeLa cells [1]; 11 days since HeLa cell transplantation): 215.4 mm^3 and 341.0 mm^3
- Tumor volume (HeLa cells [1]; [4]): 488.0 mm^3 and 721.9 mm^3
- Tumor volume (HeLa cells [1]; 16 days since HeLa cell transplantation): 734.1 mm^3 and 1094.6 mm^3
- Tumor volume (HeLa cells [1]; 18 days since HeLa cell transplantation): 939.6 mm^3 and 1348.3 mm^3
- Tumor volume (HeLa cells [1]; [5]): 1256.0 mm^3 and 1849.5 mm^3
- Increase in the size of the tumor tissue compared with the control group (HeLa cells [1]; HeLa tumor-bearing SCID/SCID mice, 5 mg/kg intraperitoneally every day for two weeks, result in words): even larger than the control group

Compound: CC(C)(F)C[C@H](N)C(=O)O [Leu(1F), 4-fluoro-L-leucine]
- Relative cell proliferation rate of PANC-1 cells (PANC-1 cells; [6]): 67.6%
- Relative cell proliferation rate of PANC-1 cells (PANC-1 cells; [7]): 47.9%
- Relative cell proliferation rate of PANC-1 cells (PANC-1 cells; [8]): 40.9%
- Relative cell proliferation rate of HeLa cells (HeLa cells [2]; [6]): 82.3%
- Relative cell proliferation rate of HeLa cells (HeLa cells [2]; [7]): 90.6%
- Relative cell proliferation rate of HeLa cells (HeLa cells [2]; [8]): 82.0%
- Relative cell proliferation rate of NHDF cells (NHDF cells; [6]): 92.0%
- Relative cell proliferation rate of NHDF cells (NHDF cells; [7]): 66.4%
- Relative cell proliferation rate of NHDF cells (NHDF cells; [8]): 87.7%
- Relative cell proliferation rate of NHDF cells (NHDF cells; Leu-removed medium + 0.8 mM amino acid, culture time 72 h, listed as monofluoroleucine): less than 100%

Compound: Cl.NC(CC(C(F)(F)F)C(F)(F)F)C(=O)O (centres unmarked) [Leu(6F), 2-amino-5,5,5-trifluoro-4-(trifluoromethyl) pentanoic acid hydrochloride]
- Relative cell proliferation rate of PANC-1 cells (PANC-1 cells; [6]): 75.5%
- Relative cell proliferation rate of PANC-1 cells (PANC-1 cells; [7]): 96.5%
- Relative cell proliferation rate of PANC-1 cells (PANC-1 cells; [9]): 193.6%
- Relative cell proliferation rate of PANC-1 cells (PANC-1 cells; Leu-removed medium + 0.8 mM amino acid, culture time 72 h, listed as hexafluoroleucine, hydrochloride): ~200%
- Relative cell proliferation rate of HeLa cells (HeLa cells [2]; [6]): 137.3%
- Relative cell proliferation rate of HeLa cells (HeLa cells [2]; [7]): 264.0%
- Relative cell proliferation rate of HeLa cells (HeLa cells [2]; [9]): 472.5%
- Relative cell proliferation rate of NHDF cells (NHDF cells; [6]): 104.7%
- Relative cell proliferation rate of NHDF cells (NHDF cells; [7]): 130.1%
- Relative cell proliferation rate of NHDF cells (NHDF cells; [9]): 179.1%

Compound: CC(C)C[C@H](N)C(=O)O [Leu, leucine, reference compound]
- Tumor volume (HeLa cells [1]; [3]): 77.4 mm^3
- Tumor volume (HeLa cells [1]; 10 days since HeLa cell transplantation): 190.1 mm^3
- Tumor volume (HeLa cells [1]; 12 days since HeLa cell transplantation): 355.3 mm^3
- Tumor volume (HeLa cells [1]; [4]): 385.1 mm^3
- Tumor volume (HeLa cells [1]; 17 days since HeLa cell transplantation): 714.2 mm^3
- Tumor volume (HeLa cells [1]; 19 days since HeLa cell transplantation): 1094.6 mm^3
- Tumor volume (HeLa cells [1]; [5]): 1536.5 mm^3

Compound: CC(C(N)C(=O)O)C(F)(F)F (centres unmarked) [Val(3F), 2-amino-3-methyl-4,4,4-trifluorobutanoic acid]
- Relative cell proliferation rate of PANC-1 cells (PANC-1 cells; [10]): 108.9%
- Relative cell proliferation rate of PANC-1 cells (PANC-1 cells; [11]): 161.2%
- Relative cell proliferation rate of PANC-1 cells (PANC-1 cells; [12]): 253.7%
- Relative cell proliferation rate of HeLa cells (HeLa cells [2]; [10]): 151.7%
- Relative cell proliferation rate of HeLa cells (HeLa cells [2]; [11]): 287.6%
- Relative cell proliferation rate of HeLa cells (HeLa cells [2]; [12]): 494.3%
- Relative cell proliferation rate of NHDF cells (NHDF cells; [10]): 83.0%
- Relative cell proliferation rate of NHDF cells (NHDF cells; [11]): 104.6%
- Relative cell proliferation rate of NHDF cells (NHDF cells; [12]): 116.6%
